Assay results published in patent US20220315908A1, “NOVEL GARDNERELLA ENDOLYSINS AND USES THEREOF” (priority 2019, published 2022).
≈ marks a conversion by molar mass, not a printed value.

System: G. piotii (Gv_17)
Test: MIC and MBC microbroth dilution
Assay type: cell-based, Gardnerella piotii
Details: for MIC / MBC: Gardnerella piotii; for MIC: 48 h
Method: One of the main deficiencies in the treatment of BV is the high rate of recurrence in many women, which leads to repeated administration of antibiotics and concomitant destabilization of the microbiome and other side effects. The minimal inhibitory concentration (MIC) and minimal bactericidal concentration (MBC) on Gardnerella cells of the strains also used for the endolysin activity assays were then measured using the method described in Reference Example 6 and 7. […] Essentially, Gardnerella suspensions at 2.5×10^7 CFU/ml were incubated with the concentration of antibiotics as indicated and incubated for 48 h at 37° C. under anaerobic conditions. […] OD(610) was measured at the beginning and the end of the experiment. At the end of the experiment, 2 ul of each reaction mix was spotted on agar to determine the MBC.
The conditions under which MIC and MBC were measured are more rigorous than the standard.
Bacteria were plated from cryo stock on BD Choc Agar plates (Gardnerella) and incubated at 37° C. for 48 h under anaerobic conditions. Colonies were scraped from the plate, resuspended in Hardy Broth or NYC-III-HS-pH 5.0, and the suspension adjusted to OD (610 or 620 nm as indicated) 0.05. It has to be noted that two Tecan Microplate readers, having respectively a 610 nm or 620 nm filter, have been used interchangeably in the experiments. Although it doesn't make any difference for the experiments, the exact wavelength used is specified in each example. Antibiotics were prepared as 20× stocks for each of the required final concentrations. 95 μl of cell suspension was mixed with 5 μl antibiotics dilution in a 384-well plate. OD (610-620 as indicated) at the start of the reaction was measured, then the plate was incubated at 37° C. for 48 h under anaerobic conditions. After that, the OD (610-620 as indicated) was measured again for MIC determination, where MIC was defined as the lowest concentration of antibiotic where the OD (610-620 as indicated) was not above the level measured at the beginning of the experiment. After measuring OD, 2 μl of each well were spotted on a NYC-III+HS Agar plate. The plates were then incubated for further 48 h at 37° C. under anaerobic conditions. After incubation, cell growth on each spot was evaluated, and the MBC defined as the lowest concentration of antibiotics where no bacteria grew on the plate. The experiments were conducted in triplicate for each condition. In the second round of MIC and MBC experiments with antibiotics the Gardnerella cell suspension was adjusted to the McFarland standard 0.5 (approximately OD (610) 0.07) and then diluted 1:75 according to the CLSI (Clinical and Laboratory Standards Institute) standards. Antibiotics were prepared according to the CLSI standards and 50 μl of cell suspension was mixed in a 96-well plate with 50 μl antibiotics. Otherwise the MIC and MBC was determined as described above. For the MIC and MBC determination of the domain swapped endolysin H2B10 50 μl of Gardnerella cell suspension was mixed in a 96-well plate with 50 μl of H2B10 containing solution, which where serially diluted 1:1. OD610 at the start of the reaction was measured, then the plate was incubated at 37° C. for 48 h under anaerobic conditions. After that, the OD(610) was measured again for MIC determination, where MIC was defined as the lowest concentration of H2B10 where the OD was not or only slightly above the level measured at the beginning of the experiment.

Question: For `Cc1ncc([N+](=O)[O-])n1CCO` [Metronidazole], which MIC (first round: […]10^7 CFU/ml, Hardy broth, 384-well, 48 h 37° C. anaerobic) is on record?
Answer: 64 µg/mL (≈ 374 µM)

Question: And the MIC (second round: 1×10^5-1×10^6 CFU/ml (CLSI), NYC-III broth, 96-well, 48 h anaerobic)?
Answer: 16 µg/mL (≈ 93.5 µM)

Question: And the MBC (first round: […]10^7 CFU/ml, minimal concentration fully eradicating the suspension)?
Answer: > 128 µg/mL

Question: And the MBC (second round: 1×10^5-1×10^6 CFU/ml (CLSI), NYC-III broth, 96-well)?
Answer: 64 µg/mL (≈ 374 µM)

Question: What about the “resistance class of MIC, Metronidazole” value (first round) of the same compound?
Answer: R (>=32 μg/mi for Metronidazole)

Question: What about the “resistance class given with MBC, Metronidazole” value (second round) of the same compound?
Answer: R (>=32 μg/mi for Metronidazole)
